According to publication PMC9917560, “Design, Synthesis and Antimicrobial Evaluation of New N-(1-Hydroxy-1,3-dihydrobenzo[c][1,2]oxaborol-6-yl)(hetero)aryl-2-carboxamides as Potential Inhibitors of Mycobacterial Leucyl-tRNA Synthetase” (International Journal of Molecular Sciences, 2023):
In brackets after ≈: the same amount, converted by molar mass. Where two headings read alike, the source gives them in different places.

Assays:
[1] = system: Candida tropicalis CCM 8264 (ATCC 750); experiment: Antifungal microdilution broth (EUCAST); type: cell-based; settings: read-out: MIC Candida tropicalis
[2] = system: Enterococcus faecalis CCM 4224 (ATCC 29212); experiment: Antibacterial microdilution broth (EUCAST); type: cell-based; settings: read-out: MIC Enterococcus faecalis
[3] = system: Aspergillus flavus CCM 8363; experiment: Antifungal microdilution broth (EUCAST); type: cell-based; settings: Aspergillus flavus, CCM8363, read-out: MIC Aspergillus flavus
[4] = system: Pseudomonas aeruginosa CCM 3955 (ATCC 27853); experiment: Antibacterial microdilution broth (EUCAST); type: cell-based; settings: read-out: MIC Pseudomonas aeruginosa
[5] = system: Lichtheimia corymbifera CCM 8077; experiment: Antifungal microdilution broth (EUCAST); type: cell-based; settings: Lichtheimia corymbifera, CCM8077, read-out: MIC Lichtheimia corymbifera
[6] = system: Mycobacterium avium DSM 44,156 (ATCC 25291); experiment: Antimycobacterial microdilution (resazurin) vs M. avium; type: cell-based; settings: Mycobacterium avium, Middlebrook 7H9, resazurin; read-out: MIC M. avium
[7] = system: Candida parapsilosis CCM 8260 (ATCC 22019); experiment: Antifungal microdilution broth (EUCAST); type: cell-based; settings: Lodderomyces parapsilosis, read-out: MIC Candida parapsilosis
[8] = system: Trichophyton interdigitale CCM 8377 (ATCC 9533); experiment: Antifungal microdilution broth (EUCAST); type: cell-based; settings: Trichophyton interdigitale, read-out: MIC Trichophyton interdigitale
[9] = system: methicillin-resistant Staphylococcus aureus subsp. aureus (MRSA) CCM 4750 (ATCC 43300); experiment: microbe, parasite or virus in culture; type: cell-based; settings: read-out: MIC Methicillin-resistant Staphylococcus aureus subsp. aureus
[10] = system: Mycobacterium tuberculosis H37Ra ITM-M006710 (ATCC 9431); experiment: Antimycobacterial microdilution (resazurin) vs Mtb H37Ra; type: cell-based; settings: Middlebrook 7H9, resazurin, recalculated from µg/mL, read-out: MIC Mtb H37Ra
[11] = system: Candida krusei CCM 8271 (ATCC 6258); experiment: Antifungal microdilution broth (EUCAST); type: cell-based; settings: Pichia kudriavzevii, read-out: MIC Candida krusei
[12] = system: Mycobacterium tuberculosis H37Rv CNCTC My 331/88 (ATCC 27294); experiment: Microplate Alamar Blue assay vs Mtb H37Rv; type: cell-based; settings: Middlebrook 7H9 pH 6.6, recalculated from µg/mL, read-out: MIC Mtb H37Rv
[13] = system: Candida albicans CCM 8320 (ATCC 24433); experiment: Antifungal microdilution broth (EUCAST); type: cell-based; settings: Candida albicans, read-out: MIC Candida albicans
[14] = system: Mycolicibacterium smegmatis DSM 43,465 (ATCC 607); experiment: Antimycobacterial microdilution (resazurin) vs M. smegmatis; type: cell-based; settings: Middlebrook 7H9, resazurin, read-out: MIC M. smeg.
[15] = system: Mycobacterium kansasii DSM 44,162 (ATCC 12478); experiment: Antimycobacterial microdilution (resazurin) vs M. kansasii; type: cell-based; settings: read-out: MIC M. kansasii
[16] = system: Acinetobacter baumannii DSM 30007 (ATCC 19606); experiment: Antibacterial microdilution broth (EUCAST); type: cell-based; settings: read-out: MIC Acinetobacter baumannii
[17] = system: Aspergillus fumigatus ATCC 204305; experiment: Antifungal microdilution broth (EUCAST); type: cell-based; settings: Aspergillus fumigatus, ATCC204305, read-out: MIC Aspergillus fumigatus
HepG2 cell line = experiment: Cytotoxicity screening, CellTiter 96 assay; settings: for IC50: Homo sapiens, HepG2, 24 h, read-out: IC50 HepG2
[18] = system: Mycolicibacterium aurum DSM 43,999 (ATCC 23366); experiment: Antimycobacterial microdilution (resazurin) vs M. aurum; type: cell-based; settings: Middlebrook 7H9, resazurin, read-out: MIC M. aurum
[19] = system: Staphylococcus epidermidis CCM 4418 (ATCC 12228); experiment: Antibacterial microdilution broth (EUCAST); type: cell-based; settings: read-out: MIC Staphylococcus epidermidis
[20] = system: Klebsiella pneumoniae CCM 4415 (ATCC 10031); experiment: Antibacterial microdilution broth (EUCAST); type: cell-based; settings: Klebsiella pneumoniae, read-out: MIC Klebsiella pneumoniae
[21] = system: Escherichia coli CCM 3954 (ATCC 25922); experiment: Antibacterial microdilution broth (EUCAST); type: cell-based; settings: Escherichia coli, read-out: MIC Escherichia coli
[22] = system: Staphylococcus aureus subsp. aureus CCM 4223 (ATCC 29213); experiment: Antibacterial microdilution broth (EUCAST); type: cell-based; settings: read-out: MIC Staphylococcus aureus subsp. aureus
[23] = Mycobacterium tuberculosis, pH 6.6, MABA

## O=C(Nc1ccc2c(c1)B(O)OC2)c1ccc(C(F)(F)F)nc1 [Compound 12, N-(1-hydroxy-1,3-dihydrobenzo[c][1,2]oxaborol-6-yl)-6-(trifluoromethyl)nicotinamide]
[1]; 24h incubation
  MIC: > 500 µM
[1]; 48h incubation
  MIC: > 500 µM
[2]; 24h incubation
  MIC: > 500 µM
[2]; 48h incubation
  MIC: > 500 µM
[3]; 24h incubation
  MIC: > 500 µM
[3]; 48h incubation
  MIC: > 500 µM
[4]; 24h incubation
  MIC: > 500 µM
[4]; 48h incubation
  MIC: > 500 µM
[5]; 24h incubation
  MIC: > 500 µM
[5]; 48h incubation
  MIC: > 500 µM
[6]
  MIC: 388 µM (≈ 125 µg/mL)
[7]; 24h incubation
  MIC: > 500 µM
[7]; 48h incubation
  MIC: > 500 µM
[8]; 72h incubation
  MIC: > 500 µM
[8]; 120h incubation
  MIC: > 500 µM
[9]; 24 h
  MIC: > 500 µM
[9]; 48 h
  MIC: > 500 µM
[10]
  MIC: 194 µM (≈ 62.5 µg/mL)
[11]; 24h incubation
  MIC: > 500 µM
[11]; 48h incubation
  MIC: > 500 µM
[12]; [23]
  MIC: 155 µM (≈ 50 µg/mL)
[13]; 24h incubation
  MIC: > 500 µM
[13]; 48h incubation
  MIC: > 500 µM
other
  melting point: 227.3 to 229.4 °C
[14]
  MIC: 24.2 µM (≈ 7.81 µg/mL)
[15]
  MIC: 194 µM (≈ 62.5 µg/mL)
[16]; 24h incubation
  MIC: > 500 µM
[16]; 48h incubation
  MIC: > 500 µM
[17]; 24h incubation
  MIC: > 500 µM
[17]; 48h incubation
  MIC: > 500 µM
HepG2 cell line
  IC50: > 250 µM
HepG2 cell line; tested up to 500 µM (2, 3), 250 µM (12, 17), 100 µM (6, 7, 11) because of solubility
  toxicity to HepG2 up to highest tested concentration: non-toxic
[18]
  MIC: 12.1 µM (≈ 3.91 µg/mL)
[19]; 24h incubation
  MIC: > 500 µM
[19]; 48h incubation
  MIC: > 500 µM
[20]; 24h incubation
  MIC: > 500 µM
[20]; 48h incubation
  MIC: > 500 µM
[21]; 24h incubation
  MIC: > 500 µM
[21]; 48h incubation
  MIC: > 500 µM
[22]; 24h incubation
  MIC: > 500 µM
[22]; 48h incubation
  MIC: > 500 µM

## O=C(Nc1ccc2c(c1)B(O)OC2)c1ccc(O)nc1 [Compound 13, 6-hydroxy-N-(1-hydroxy-1,3-dihydrobenzo[c][1,2]oxaborol-6-yl)nicotinamide]
[1]; 24h incubation
  MIC: > 500 µM
[1]; 48h incubation
  MIC: > 500 µM
[2]; 24h incubation
  MIC: > 500 µM
[2]; 48h incubation
  MIC: > 500 µM
[3]; 24h incubation
  MIC: > 500 µM
[3]; 48h incubation
  MIC: > 500 µM
[4]; 24h incubation
  MIC: > 500 µM
[4]; 48h incubation
  MIC: > 500 µM
[5]; 24h incubation
  MIC: > 500 µM
[5]; 48h incubation
  MIC: > 500 µM
[6]
  MIC: 463 µM (≈ 125 µg/mL)
[7]; 24h incubation
  MIC: > 500 µM
[7]; 48h incubation
  MIC: > 500 µM
[8]; 72h incubation
  MIC: > 500 µM
[8]; 120h incubation
  MIC: > 500 µM
[9]; 24 h
  MIC: > 500 µM
[9]; 48 h
  MIC: > 500 µM
[10]
  MIC: 463 µM (≈ 125 µg/mL)
[11]; 24h incubation
  MIC: > 500 µM
[11]; 48h incubation
  MIC: > 500 µM
[12]; MABA
  MIC: >370.30 µM
[12]; [23]
  MIC: > 370 µM
[13]; 24h incubation
  MIC: > 500 µM
[13]; 48h incubation
  MIC: > 500 µM
other
  melting point: 304.8 to 306.9 °C
[14]
  MIC: 116 µM (≈ 31.3 µg/mL)
[15]; Middlebrook 7H9, resazurin
  MIC: 116 µM (≈ 31.3 µg/mL)
[16]; 24h incubation
  MIC: > 500 µM
[16]; 48h incubation
  MIC: > 500 µM
[17]; 24h incubation
  MIC: > 500 µM
[17]; 48h incubation
  MIC: > 500 µM
HepG2 cell line
  IC50: > 1000 µM
[18]
  MIC: 116 µM (≈ 31.3 µg/mL)
[19]; 24h incubation
  MIC: > 500 µM
[19]; 48h incubation
  MIC: > 500 µM
[20]; 24h incubation
  MIC: > 500 µM
[20]; 48h incubation
  MIC: > 500 µM
[21]; 24h incubation
  MIC: > 500 µM
[21]; 48h incubation
  MIC: > 500 µM
[22]; 24h incubation
  MIC: > 500 µM
[22]; 48h incubation
  MIC: > 500 µM
